We go through 11 cell lines from the supplement of paper PMC10307832.

Holding throughout (experiment): relative viability (nuclei count vs DMSO), 5 days (fraction); higher = more cells survive
Compound in assay [1]: COc1cc2c(Oc3ccc4[nH]c(C)cc4c3F)ncnc2cc1OCCCN1CCCC1 [Cediranib] + C[C@]1(O)C[C@@H](c2nc(-c3ccc4ccc(-c5ccccc5)nc4c3)c3c(N)nccn32)C1 [Linsitinib] (partner 1 µM)
In a few lines: (§1)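 The day after seeding in 1536-well plates, lung cancer cell lines were treated by pin tool with a single drug, or with a fixed anchor-drug dose together with five library-drug doses (not always all listed) in √10 steps. After 5 days, a combined fix-and-stain solution (final 0.05% Triton X-100, 1% formaldehyde, 1 ug/ml Hoechst) was added. Nuclei counted on 4× images gave relative viability as treated counts over vehicle counts, reported as the median of duplicate plates.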

Compound in assay [2]: COc1cc2c(Oc3ccc4[nH]c(C)cc4c3F)ncnc2cc1OCCCN1CCCC1 [Cediranib] + Nc1ncn([C@H]2C[C@H](O)[C@@H](CO)O2)c(=O)n1 [Decitabine] (partner 2 µM)
In a few lines:
as §1

Compound in assay [3]: COc1cc2c(Oc3ccc4[nH]c(C)cc4c3F)ncnc2cc1OCCCN1CCCC1 [Cediranib] + O=C(c1cc(Cc2n[nH]c(=O)c3ccccc23)ccc1F)N1CCN(C(=O)C2CC2)CC1 [Olaparib] (partner 8 µM)
In a few lines:
as §1

Compound in assay [4]: COc1cc2c(Oc3ccc4[nH]c(C)cc4c3F)ncnc2cc1OCCCN1CCCC1 [Cediranib] + CS(=O)(=O)CCNCc1ccc(-c2ccc3ncnc(Nc4ccc(OCc5cccc(F)c5)c(Cl)c4)c3c2)o1 [Lapatinib] (partner 2 µM)
In a few lines: as §1

Take NCI-H441: the relative viability is 0.445 in assay [1] (first compound 0.04 µM); 0.546 in assay [1] (first compound 0.1265 µM); 0.524 in assay [1] (first compound 0.4 µM); 0.551 in assay [1] (first compound 1.265 µM); 0.652 in assay [1] (first compound 4 µM); 0.288 in assay [2] (first compound 0.04 µM). Further, the relative viability in assay [2] (first compound 0.1265 µM) came out at 0.234; in assay [2] (first compound 0.4 µM), 0.275; in assay [2] (first compound 1.265 µM) it was 0.251; in assay [2] (first compound 4 µM), 0.286; in assay [3] (first compound 0.04 µM), 0.564; in assay [3] (first compound 0.1265 µM), 0.605. The relative viability was found to be 0.597 in assay [3] (first compound 0.4 µM), 0.702 in assay [3] (first compound 1.265 µM) and 0.575 in assay [3] (first compound 4 µM).

For NCI-H522, the relative viability in assay [2] (first compound 0.04 µM) came to 0.702; in assay [2] (first compound 0.1265 µM), 0.746; in assay [2] (first compound 0.4 µM), 0.76; in assay [2] (first compound 1.265 µM), 0.661; in assay [2] (first compound 4 µM) it was 0.656; in assay [3] (first compound 0.04 µM) it was 0.685. Also, the relative viability turned out to be 0.631 in assay [3] (first compound 0.1265 µM), 0.678 in assay [3] (first compound 0.4 µM), 0.69 in assay [3] (first compound 1.265 µM) and 0.646 in assay [3] (first compound 4 µM).

Regarding NCI-H1299, the relative viability in assay [4] (first compound 0.04 µM) is 1.02; in assay [4] (first compound 0.1265 µM), 0.958; in assay [4] (first compound 0.4 µM), 0.995; in assay [4] (first compound 1.265 µM), 0.933; in assay [4] (first compound 4 µM) it was 0.983; in assay [1] (first compound 0.04 µM), 1. The relative viability was 0.977 in assay [1] (first compound 0.1265 µM); 0.96 in assay [1] (first compound 0.4 µM); 0.988 in assay [1] (first compound 1.265 µM); 0.947 in assay [1] (first compound 4 µM); 0.999 in assay [3] (first compound 0.04 µM); 0.96 in assay [3] (first compound 0.1265 µM). The relative viability in assay [3] (first compound 0.4 µM) is 0.92; in assay [3] (first compound 1.265 µM), 0.949; in assay [3] (first compound 4 µM) it was 0.97.

In the case of NCI-H1563, the relative viability in assay [4] (first compound 0.04 µM) was found to be 0.89; in assay [4] (first compound 0.1265 µM) it was 0.66; in assay [4] (first compound 0.4 µM) it was 0.935; in assay [4] (first compound 1.265 µM) it was 0.822; in assay [4] (first compound 4 µM), 0.78; in assay [1] (first compound 0.04 µM), 1.27. Also, the relative viability in assay [1] (first compound 0.1265 µM) is 1.32; in assay [1] (first compound 0.4 µM), 1.22; in assay [1] (first compound 1.265 µM), 1.3; in assay [1] (first compound 4 µM), 1.22.

Consider NCI-H1648, for which the relative viability in assay [2] (first compound 0.04 µM) worked out at 0.44; in assay [2] (first compound 0.1265 µM), 0.501; in assay [2] (first compound 0.4 µM) it was 0.448; in assay [2] (first compound 1.265 µM), 0.48; in assay [2] (first compound 4 µM), 0.481; in assay [3] (first compound 0.04 µM) it was 0.519. The relative viability in assay [3] (first compound 0.1265 µM) is 0.824; in assay [3] (first compound 0.4 µM), 0.901; in assay [3] (first compound 1.265 µM) it was 1.2; in assay [3] (first compound 4 µM), 1.31.

Turning to NCI-H1650, the relative viability in assay [4] (first compound 0.04 µM) is 0.955; in assay [4] (first compound 0.1265 µM), 0.183; in assay [4] (first compound 0.4 µM), 0.802; in assay [4] (first compound 1.265 µM), 0.776; in assay [4] (first compound 4 µM), 0.665; in assay [2] (first compound 0.04 µM), 0.408. Besides, the relative viability in assay [2] (first compound 0.1265 µM) came out at 0.482; in assay [2] (first compound 0.4 µM), 0.354; in assay [2] (first compound 1.265 µM) it was 0.496; in assay [2] (first compound 4 µM), 0.385; in assay [3] (first compound 0.04 µM), 0.825; in assay [3] (first compound 0.1265 µM) it was 0.801. Further, the relative viability in assay [3] (first compound 0.4 µM) came out at 0.771; in assay [3] (first compound 1.265 µM), 0.707; in assay [3] (first compound 4 µM) it was 0.845.

As to NCI-H1703, the relative viability in assay [4] (first compound 0.04 µM) was found to be 1.36; in assay [4] (first compound 0.1265 µM), 1.07; in assay [4] (first compound 0.4 µM), 0.361; in assay [4] (first compound 1.265 µM) it was 0.354; in assay [4] (first compound 4 µM), 0.341; in assay [1] (first compound 0.04 µM), 0.458. Further, the relative viability was 0.452 in assay [1] (first compound 0.1265 µM); 0.372 in assay [1] (first compound 0.4 µM); 0.26 in assay [1] (first compound 1.265 µM); 0.183 in assay [1] (first compound 4 µM); 0.389 in assay [3] (first compound 0.04 µM); 0.388 in assay [3] (first compound 0.1265 µM). In addition, the values for the relative viability in assay [3] (first compound 0.4 µM), in assay [3] (first compound 1.265 µM) and in assay [3] (first compound 4 µM) were 0.173, 0.163 and 0.243, respectively.

Regarding NCI-H2170, the relative viability turned out to be 0.295 in assay [4] (first compound 0.04 µM); 0.277 in assay [4] (first compound 0.1265 µM); 0.243 in assay [4] (first compound 0.4 µM); 0.232 in assay [4] (first compound 1.265 µM); 0.268 in assay [4] (first compound 4 µM); 0.522 in assay [2] (first compound 0.04 µM). In addition, the relative viability in assay [2] (first compound 0.4 µM) is 0.473; in assay [2] (first compound 1.265 µM), 0.481; in assay [2] (first compound 4 µM) it was 0.515; in assay [3] (first compound 0.04 µM), 0.575; in assay [3] (first compound 0.4 µM) it was 0.533; in assay [3] (first compound 1.265 µM) it was 0.598. Moreover, in assay [3] (first compound 4 µM), the relative viability was 0.726.

With NCI-H2228, the relative viability amounted to 1.06 in assay [4] (first compound 0.04 µM); 1.07 in assay [4] (first compound 0.1265 µM); 0.928 in assay [4] (first compound 0.4 µM); 1.18 in assay [4] (first compound 1.265 µM); 1.17 in assay [4] (first compound 4 µM); 0.873 in assay [1] (first compound 0.04 µM). The relative viability in assay [1] (first compound 0.1265 µM) came to 0.955; in assay [1] (first compound 0.4 µM), 0.8; in assay [1] (first compound 1.265 µM) it was 0.536; in assay [1] (first compound 4 µM), 1.03; in assay [3] (first compound 0.04 µM), 0.801; in assay [3] (first compound 0.1265 µM), 1.02. The relative viability in assay [3] (first compound 0.4 µM) is 0.642; in assay [3] (first compound 1.265 µM), 0.707; in assay [3] (first compound 4 µM), 0.556.

As to NCI-H2342, the relative viability in assay [2] (first compound 0.04 µM) was 0.83; in assay [2] (first compound 0.1265 µM), 0.827; in assay [2] (first compound 0.4 µM), 0.732; in assay [2] (first compound 1.265 µM), 0.74; in assay [2] (first compound 4 µM), 0.812; in assay [3] (first compound 0.04 µM) it was 0.419. The relative viability in assay [3] (first compound 0.1265 µM) turned out to be 0.398; in assay [3] (first compound 0.4 µM), 0.46; in assay [3] (first compound 1.265 µM) it was 0.455; in assay [3] (first compound 4 µM) it was 0.458.

As for SW 900, the relative viability in assay [2] (first compound 0.04 µM) worked out at 0.45; in assay [2] (first compound 0.1265 µM), 0.421; in assay [2] (first compound 0.4 µM), 0.425; in assay [2] (first compound 1.265 µM), 0.444; in assay [2] (first compound 4 µM), 0.53; in assay [3] (first compound 0.04 µM) it was 0.915. In addition, the relative viability in assay [3] (first compound 0.1265 µM) worked out at 0.845; in assay [3] (first compound 0.4 µM), 0.794; in assay [3] (first compound 1.265 µM), 0.899; in assay [3] (first compound 4 µM), 0.925.
